Here are results for 39 molecules from ChEMBL document CHEMBL4483862, “Open-source discovery of chemical leads for next-generation chemoprotective antimalarials” (2018).

The assay concerns Plasmodium berghei. Put plainly: Luciferase/luciferin-expressing antifolate-resistant parasites were used to infect a culture of HepG2 cells that were pre-incubated with compounds. Infected hepatocytes emit light due to the luciferase reaction. Assay results are presented as the percent inhibition of light emission compared to control. […]. The format is functional. The settings on record: sporozoite; for IC90: read-out: LUCIFERASE INFECTION ASSAY - IC90.

Where [1] appears, read: read-out: LUCIFERASE INFECTION ASSAY - IC50.

Molecules are shown by their SMILES. A value given as a limit tells only on which side of the number the result lay.

Take `Oc1cccc(-c2cnc3cnc(-c4ccc(Cl)cc4)cn23)c1`: the IC90 is more than 10.3 µM. Also, the IC50 (HEPG2TOX_HILL_SLOPE 0.659, HEPG2TOX_R_SQUARED 0.949, PBLUC_HILL_SLOPE 0.784, PBLUC_R_SQUARED 0.857, read-out: LUCIFERASE INFECTION ASSAY - IC50) is 1.55 µM.

With `COc1cc(-c2cnc3cnc(-c4ccccc4C)cn23)ccc1O`, the IC90 worked out at 5.32 µM. The IC50 (FFLUC_HILL_SLOPE 9.6, FFLUC_R_SQUARED 0.0922, HEPG2TOX_HILL_SLOPE 3.65, HEPG2TOX_R_SQUARED 0.847, PBLUC_HILL_SLOPE 7.45, PBLUC_R_SQUARED 0.397, read-out: LUCIFERASE INFECTION ASSAY - IC50) turned out to be 3.96 µM.

Regarding `CN(c1ccccc1)S(=O)(=O)c1ccc(NC(=O)c2cccs2)cc1`, the IC90 was found to be 8.27 µM. Besides, the IC50 (PBLUC_HILL_SLOPE 1.98, PBLUC_R_SQUARED 0.132, read-out: LUCIFERASE INFECTION ASSAY - IC50) was 2.73 µM.

For the molecule `CC1(C)CCc2cc(/C=N/OC(=O)Nc3ccc(OC(F)(F)F)cc3)ccc2O1`, the IC90 is more than 8.08 µM. The IC50 under setting [1] was more than 8.08 µM.

Consider `Cc1cccc(C)c1NC(=O)Nc1cccn(Cc2ccc(Cl)cc2)c1=O`, for which the IC90 is more than 8.64 µM. Also, the IC50 (PBLUC_HILL_SLOPE 2.91, PBLUC_R_SQUARED 0.157, read-out: LUCIFERASE INFECTION ASSAY - IC50) was determined as 7.92 µM.

In the case of `CC(=O)Nc1ccc(NC(=O)/C(C#N)=C/c2c(Cl)cccc2Cl)cc1`, the IC90 is more than 10 µM. The IC50 (PBLUC_HILL_SLOPE 14.2, PBLUC_R_SQUARED 0.281, read-out: LUCIFERASE INFECTION ASSAY - IC50) worked out at 9.36 µM.

On to `O=C(NCCC1=CCCCC1)c1cc2ccccc2c(=O)[nH]1`, for which the IC90 was more than 10 µM. The IC50 (HEPG2TOX_HILL_SLOPE 1.23, HEPG2TOX_R_SQUARED 0.699, PBLUC_HILL_SLOPE 12.6, PBLUC_R_SQUARED 0.339, read-out: LUCIFERASE INFECTION ASSAY - IC50) was 9.57 µM.

Consider `O=C1NCC(CSc2nc3cc(Cl)ccc3c(=O)n2C2CCCCC2)O1` (stereo not drawn), for which the IC90 was found to be 7.92 µM. In addition, for the setting “PBLUC_HILL_SLOPE 3.9, PBLUC_R_SQUARED 0.536, read-out: LUCIFERASE INFECTION ASSAY - IC50”, the IC50 was 4.51 µM.

With `CCCn1nc(C(=O)N2CCCc3ccccc32)c2ccccc2c1=O`, the IC90 is more than 10 µM. The IC50 under setting [1] is more than 10 µM.

`O=C1Nc2cc(Cl)ccc2/C1=C\c1nn(Cc2ccccc2)cc1-c1cccnc1`: the IC90 is more than 10 µM. Moreover, where the note is “FFLUC_HILL_SLOPE 16.7, FFLUC_R_SQUARED 0.641, read-out: LUCIFERASE INFECTION ASSAY - IC50”, the IC50 is more than 10 µM.

With `C/C(=N\Nc1ccnc2cc(Cl)ccc12)c1ccc(-n2ccnc2)cc1`, the IC90 is more than 10 µM. The IC50 (HEPG2TOX_HILL_SLOPE 8.87, HEPG2TOX_R_SQUARED 0.252, read-out: LUCIFERASE INFECTION ASSAY - IC50) was more than 10 µM.

On to `CSc1nc(C)nc(C)c1C(=O)Nc1nc(-c2ccc3c(c2)CCCC3)cs1`, for which the IC90 is more than 10 µM. The IC50 (FFLUC_HILL_SLOPE 9.1, FFLUC_R_SQUARED 0.159, read-out: LUCIFERASE INFECTION ASSAY - IC50) was more than 10 µM.

For `CC(C)Cn1c(SCC(=O)Nc2ccccc2C(=O)OC2CC(C)CCC2C(C)C)nnc1-c1cccc(S(=O)(=O)N2CCOCC2)c1` (stereo not drawn), the IC90 is more than 10 µM. The IC50 (PBLUC_HILL_SLOPE 3.05, PBLUC_R_SQUARED 0.72, read-out: LUCIFERASE INFECTION ASSAY - IC50) worked out at 5.79 µM.

As to `COc1ccc(C2=NN=C/C2=N\Nc2ccccc2)cc1`, the IC90 amounted to 3.89 µM. Moreover, the IC50 (HEPG2TOX_HILL_SLOPE 2.19, HEPG2TOX_R_SQUARED 0.971, PBLUC_HILL_SLOPE 2.49, PBLUC_R_SQUARED 0.567, read-out: LUCIFERASE INFECTION ASSAY - IC50) turned out to be 1.61 µM.

In the case of `O=C1C(=C2NN=NN2c2ccc(-c3ccccc3)cc2)C=Nc2ccccc21`, the IC90 was more than 9.03 µM. Also, where the note is “PBLUC_HILL_SLOPE 3.52, PBLUC_R_SQUARED 0.301, read-out: LUCIFERASE INFECTION ASSAY - IC50”, the IC50 is 6.48 µM.

As to `Cc1ccc(Oc2ccc(S(=O)(=O)NCCN(C)C)cc2)cc1`, the 90% effect concentration (IC90) was more than 10 µM. The IC50 under setting [1] was more than 10 µM.

Take `CCOC(=O)c1sc(NC(=O)c2ccc(C)s2)cc1C`: the IC90 was more than 10 µM. In addition, the IC50 under setting [1] is more than 10 µM.

Take `CCOc1ccc(C(C)=O)cc1CSc1nc2scc(-c3ccccc3)c2c(=O)n1C`: the IC90 was more than 10 µM. In addition, the concentration for half-maximal inhibition (IC50) (PBLUC_HILL_SLOPE 1.32, PBLUC_R_SQUARED 0.21, read-out: LUCIFERASE INFECTION ASSAY - IC50) is more than 10 µM.

On to `O=C(N/N=C/c1c(-c2ccccc2)n(-c2ccccc2)c2ccccc12)C1COc2ccccc2O1` (stereo not drawn), for which the IC90 is more than 10 µM. In addition, the IC50 (FFLUC_HILL_SLOPE 2.45, FFLUC_R_SQUARED 0.636, PBLUC_HILL_SLOPE 2.61, PBLUC_R_SQUARED 0.591, read-out: LUCIFERASE INFECTION ASSAY - IC50) came to 5.83 µM.

Turning to `O=C(Nc1cc(S(=O)(=O)c2ccccc2)cs1)c1ccc(Cl)cc1`, the IC90 came to 5.49 µM. The IC50 (HEPG2TOX_HILL_SLOPE 7.57, HEPG2TOX_R_SQUARED 0.801, PBLUC_HILL_SLOPE 3.36, PBLUC_R_SQUARED 0.445, read-out: LUCIFERASE INFECTION ASSAY - IC50) is 2.85 µM.

Take `O=C(NC1CCN(Cc2ccccc2)CC1)N1CCN(Cc2ccc(Br)s2)CC1`: the IC90 came out at 4.35 µM. Further, the IC50 (HEPG2TOX_HILL_SLOPE 3.62, HEPG2TOX_R_SQUARED 0.356, PBLUC_HILL_SLOPE 12.1, PBLUC_R_SQUARED 0.388, read-out: LUCIFERASE INFECTION ASSAY - IC50) came to 3.62 µM.

For the molecule `Cc1sc2nc(-c3cccnc3)nc(N(C)Cc3cccnc3)c2c1C`, the IC90 was 9.64 µM. In addition, the IC50 (PBLUC_HILL_SLOPE 7.84, PBLUC_R_SQUARED 0.586, read-out: LUCIFERASE INFECTION ASSAY - IC50) was determined as 7.28 µM.

`O=S(=O)(NCCCCOc1ccc(Cl)cc1)c1ccc(S(=O)(=O)N2CCOCC2)cc1`: the IC90 was more than 10 µM. For the same molecule, under setting [1], the IC50 is 9.97 µM.

With `Cc1ccnc(SCc2cc(=O)n3nc(C)c(-c4ccc(F)cc4)c3[nH]2)n1`, the IC90 is more than 8.65 µM. Moreover, for the setting “FFLUC_HILL_SLOPE 7.05, FFLUC_R_SQUARED 0.398, PBLUC_HILL_SLOPE 2.1, PBLUC_R_SQUARED 0.785, read-out: LUCIFERASE INFECTION ASSAY - IC50”, the IC50 was more than 8.65 µM.

Take `O=C(CN1CCN(C(C(=O)Nc2cc(C(F)(F)F)ccc2Cl)c2ccccc2)CC1)NC1CC1` (stereo not drawn): the IC90 is more than 10 µM. The IC50 under setting [1] was found to be 9.79 µM.

Consider `NC(Cc1ccc(F)cc1)c1csc(NC(=O)Nc2ccccc2Oc2ccccc2)n1` (stereo not drawn), for which the 90% effect concentration (IC90) was more than 7.36 µM. In addition, under setting [1], the IC50 was more than 7.36 µM.

As for `CCOC(=O)c1c(C)[nH]c(C(=O)Nc2ccnn2Cc2ccc(Cl)cc2Cl)c1C`, the IC90 is more than 10 µM. The IC50 (PBLUC_HILL_SLOPE 1.6, PBLUC_R_SQUARED 0.586, read-out: LUCIFERASE INFECTION ASSAY - IC50) was 3.97 µM.

Take `CN1C(=O)Cc2cc(C3=NNC(=Nc4ccccc4F)SC3)ccc21`: the IC90 was more than 10 µM. Moreover, under setting [1], the IC50 is more than 10 µM.

With `CNc1ccccc1C(C)(C)c1cc(-c2ccc(F)cc2)no1`, the IC90 is more than 10 µM. For the same molecule, the IC50 under setting [1] worked out at 8.62 µM.

On to `c1csc(-c2cnc3sc(NCc4ccncc4)nn23)c1`, for which the IC90 is more than 10.5 µM. In addition, the IC50 under setting [1] is more than 10.5 µM.

For `O=C(Nc1cccc(S(=O)(=O)NC2=NCCCCC2)c1)c1cncc(Br)c1`, the IC90 is more than 10 µM. Further, the IC50 under setting [1] is more than 10 µM.

Turning to `Cc1nc(SCc2cccc(S(=O)(=O)N(C)C)c2)c2ccccc2n1`, the IC90 is more than 10 µM. The IC50 (HEPG2TOX_HILL_SLOPE 2.7, HEPG2TOX_R_SQUARED 0.556, read-out: LUCIFERASE INFECTION ASSAY - IC50) was more than 10 µM.

Consider `N/C(CC(=O)Nc1ccc(F)cc1F)=N\O`, for which the IC90 is more than 14.4 µM. Further, the IC50 under setting [1] is more than 14.4 µM.

With `CN1CCN(S(=O)(=O)c2ccc(N3CCC(c4nc5ccccc5s4)CC3)nc2)CC1`, the IC90 was more than 10 µM. The IC50 (PBLUC_HILL_SLOPE 13.7, PBLUC_R_SQUARED 0.493, read-out: LUCIFERASE INFECTION ASSAY - IC50) worked out at 9.47 µM.

As for `Cc1nc(NCc2ccco2)c2c(C)c(C)sc2n1`, the IC90 was found to be 4.47 µM. Also, under setting [1], the IC50 worked out at 3.73 µM.

Consider `CC(=O)c1ccc(-c2cnc(N)c(-c3cccc(N(C)C)c3)c2)s1`, for which the IC90 amounted to 4.08 µM. Further, where the note is “HEPG2TOX_HILL_SLOPE 12.1, HEPG2TOX_R_SQUARED 0.413, PBLUC_HILL_SLOPE 8.96, PBLUC_R_SQUARED 0.727, read-out: LUCIFERASE INFECTION ASSAY - IC50”, the IC50 came to 3.19 µM.

On to `COc1ccc(C(C)(C)C)cc1NC(=O)COC(=O)c1c(-c2ccccc2)csc1NC(=O)C=C(C)C`, for which the IC90 was determined as 8.12 µM. Also, the IC50 (FFLUC_HILL_SLOPE 1.58, FFLUC_R_SQUARED 0.454, PBLUC_HILL_SLOPE 2.65, PBLUC_R_SQUARED 0.35, read-out: LUCIFERASE INFECTION ASSAY - IC50) turned out to be 3.55 µM.

Turning to `COc1cc(NC(=O)c2cc(N3CCN(c4ccccn4)CC3)ncn2)cc(OC)c1OC`, the IC90 worked out at 1.61 µM. Moreover, for the setting “HEPG2TOX_HILL_SLOPE 1.23, HEPG2TOX_R_SQUARED 0.824, PBLUC_HILL_SLOPE 2.21, PBLUC_R_SQUARED 0.872, read-out: LUCIFERASE INFECTION ASSAY - IC50”, the IC50 amounted to 0.596 µM.

Turning to `Cc1nn(-c2ccccc2)c2nc(-c3cccs3)cc(C(=O)N3CCc4ccccc43)c12`, the IC90 is more than 10 µM. Also, the IC50 (FFLUC_HILL_SLOPE 2.26, FFLUC_R_SQUARED 0.632, PBLUC_HILL_SLOPE 0.862, PBLUC_R_SQUARED 0.727, read-out: LUCIFERASE INFECTION ASSAY - IC50) was determined as 4.63 µM.
